# Laboratory results as given in patent US8012998B2, “Pyrrolidine aryl-ether as NK-3 receptor antagonists” (Hoffmann—LA Roche Inc., priority 2007, dated 2011).
# Molecular target: T1, human NK3 receptor (Homo sapiens, UniProt P29371)
# T1 construct: expressed in transfected cells; host or cells: HEK293 cells (transient expression), membrane preparation
# T1 sequence (P29371 1-465): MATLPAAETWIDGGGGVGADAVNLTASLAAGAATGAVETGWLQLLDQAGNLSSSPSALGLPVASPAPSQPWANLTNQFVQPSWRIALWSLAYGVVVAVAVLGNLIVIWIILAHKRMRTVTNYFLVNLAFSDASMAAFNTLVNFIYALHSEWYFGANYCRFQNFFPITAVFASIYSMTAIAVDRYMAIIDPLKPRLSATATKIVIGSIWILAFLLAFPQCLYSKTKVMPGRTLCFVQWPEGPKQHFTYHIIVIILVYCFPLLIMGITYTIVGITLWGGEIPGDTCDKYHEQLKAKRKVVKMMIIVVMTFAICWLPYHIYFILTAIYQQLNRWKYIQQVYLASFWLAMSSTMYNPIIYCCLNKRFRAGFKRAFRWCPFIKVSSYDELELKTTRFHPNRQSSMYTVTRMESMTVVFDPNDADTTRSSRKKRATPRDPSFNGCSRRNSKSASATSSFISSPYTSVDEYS
# Assay: [3H]SR142801 competition binding assay (hNK3 receptor binding)
# Details: [3H]SR142801 radioligand; membranes from HEK293 cells transiently expressing recombinant human NK3 receptor; Ki by Cheng-Prussoff; read-out: KiNK3 h
# Description: [^3H]SR^142801 Competition Binding Assay
# hNK3 receptor binding experiment were performed using [^3H]SR^142801 (Catalog No. TRK1035, specific activity: 74.0 Ci/mmol, Amersham, GE Healthcare UK limited, Buckinghamshire, UK) and membrane isolated from HEK293 cells transiently expressing recombinant human NK3 receptor. After thawing, the membrane homogenates were centrifuged at 48,000×g for 10 min at 4° C., the pellets were resuspended in the 50 mM Tris-HCl, 4 mM MnCl2, 1 μM phosphoramidon, 0.1% BSA binding buffer at pH 7.4 to a final assay concentration of 5 μg protein/well. […] At the end of the incubation, membranes were filtered onto unitfilter (96-well white microplate with bonded GF/C filter preincubated 1 h in 0.3% PEI +0.3% BSA, Packard BioScience, Meriden, Conn.) with a Filtermate 196 harvester (Packard BioScience) and washed 4 times with ice-cold 50 mM Tris-HCl, pH 7.4 buffer. Nonspecific binding was measured in the presence of 10 μM SB222200 for both radioligands. The radioactivity on the filter was counted (5 min) on a Packard Top-count microplate scintillation counter with quenching correction after addition of 45 μl of microscint 40 (Canberra Packard S.A., Zutrich, Switzerland) and shaking for 1 h. Inhibition curves were fitted according to the Hill equation: y=100/(1+(x/IC50)^nH), where nH=slope factor using Excel-fit 4 software (Microsoft). IC50 values were derived from the inhibition curve and the affinity constant (Ki) values were calculated using the Cheng-Prussoff equation Ki=IC50/(1+[L]/KD) where [L] is the concentration of radioligand and KD is its dissociation constant at the receptor, derived from the saturation isotherm. All experiments were performed in duplicate and the mean ± standard error (SEM) of the individual Ki values was calculated.
row,Ki,Compound
1,23.4 nM,"Cc1ncc(C(=O)N2C[C@H]([C@H](C)Oc3ccc(C#N)cn3)[C@@H](c3ccc(Cl)c(Cl)c3)C2)cn1 (racemic) [Example 57, 6-{(SR)-1-[(3RS,4SR)-4-(3,4-Dichloro-phenyl)-1-(2-methyl-pyrimidine-5-carbonyl)-pyrrolidin-3-yl]-ethoxy}-nicotinonitrile]"
2,4 nM,"Cc1cc(C(=O)N2C[C@H]([C@H](C)Oc3ccc(Cl)cn3)[C@@H](c3ccc(F)c(F)c3)C2)cnn1 [Example 104, [(3R,4S)-3-[(S)-1-(5-Chloro-pyridin-2-yloxy)-ethyl]-4-(3,4-difluoro-phenyl)-pyrrolidin-1-yl]-(6-methyl-pyridazin-4-yl)-methanone]"
3,5 nM,"Cc1cc(C(=O)N2C[C@H]([C@H](CO)Oc3ccc(Cl)cn3)[C@@H](c3ccc(Cl)c(Cl)c3)C2)cnn1 [Example 112, [(3R,4S)-3-[(R)-1-(5-Chloro-pyridin-2-yloxy)-2-hydroxy-ethyl]-4-(3,4-dichloro-phenyl)-pyrrolidin-1-yl]-(6-methyl-pyridazin-4-yl)-methanone]"
4,27 nM,"Cc1cc(C(=O)N2C[C@H]([C@H](C)Oc3ccc(Cl)cn3)[C@@H](c3ccc(F)cc3F)C2)cnn1 (racemic) [Example 117, [(3RS,4SR)-3-[(SR)-1-(5-Chloro-pyridin-2-yloxy)-ethyl]-4-(2,4-difluoro-phenyl)-pyrrolidin-1-yl]-(6-methyl-pyridazin-4-yl)-methanone]"
5,18.4 nM,"Cc1ncc(C(=O)N2C[C@H]([C@H](C)Oc3ccc(C#N)cn3)[C@@H](c3ccc(Cl)c(F)c3)C2)cn1 [Example 91, 6-{(S)-1-[(3R,4S)-4-(4-Chloro-3-fluoro-phenyl)-1-(2-methyl-pyrimidine-5-carbonyl)-pyrrolidin-3-yl]-ethoxy}-nicotinonitrile]"
6,50 nM,"C[C@@H](Oc1ccc(Cl)cn1)[C@@H]1CN(C(=O)c2ccc(N(C)C)cc2)C[C@H]1c1ccc(Cl)c(Cl)c1 (racemic) [Example 13, [(3SR,4RS)-3-[(RS)-1-(5-Chloro-pyridin-2-yloxy)-ethyl]-4-(3,4-dichloro-phenyl)-pyrrolidin-1-yl]-(4-dimethylamino-phenyl)-methanone]"
7,1.5 nM,"C[C@H](Oc1ccc(C(F)(F)F)cn1)[C@H]1CN(C(=O)c2ccc(-n3cccn3)nc2)C[C@@H]1c1ccc(Cl)c(Cl)c1 (racemic) [Example 80, {(3SR,4RS)-3-(3,4-Dichloro-phenyl)-4-[(SR)-1-(5-trifluoromethyl-pyridin-2-yloxy)-ethyl]-pyrrolidin-1-yl}-(6-pyrazol-1-yl-pyridin-3-yl)-methanone]"
8,4.3 nM,"CCc1ncc(C(=O)N2C[C@H]([C@H](C)Oc3ccc(C#N)cn3)[C@@H](c3ccc(Cl)c(Cl)c3)C2)cc1C (racemic) [Example 86, 6-{(SR)-1-[(3RS,4SR)-4-(3,4-Dichloro-phenyl)-1-(6-ethyl-5-methyl-pyridine-3-carbonyl)-pyrrolidin-3-yl]-ethoxy}-nicotinonitrile]"
9,63.3 nM,"COc1ccc(C(=O)N2C[C@@H]([C@@H](C)Oc3ncc(F)cn3)[C@H](c3ccc(Cl)c(Cl)c3)C2)cn1 (racemic) [Example 25, {(3RS,4SR)-3-(3,4-Dichloro-phenyl)-4-[(RS)-1-(5-fluoro-pyrimidin-2-yloxy)-ethyl]-pyrrolidin-1-yl}-(6-methoxy-pyridin-3-yl)-methanone]"
10,28 nM,"Cc1cc(C(=O)N2C[C@H]([C@H](CO)Oc3ccc(Cl)cn3)[C@@H](c3ccc(F)c(F)c3)C2)cnn1 [Example 116, [(3R,4S)-3-[(R)-1-(5-Chloro-pyridin-2-yloxy)-2-hydroxy-ethyl]-4-(3,4-difluoro-phenyl)-pyrrolidin-1-yl]-(6-methyl-pyridazin-4-yl)-methanone]"
11,14.7 nM,"Cc1ccc(C(=O)N2C[C@H]([C@H](C)Oc3ccc(C#N)cn3)[C@@H](c3ccc(Cl)c(Cl)c3)C2)cn1 (racemic) [Example 68, 6-{(SR)-1-[(3RS,4SR)-4-(3,4-Dichloro-phenyl)-1-(6-methyl-pyridine-3-carbonyl)-pyrrolidin-3-yl]-ethoxy}-nicotinonitrile]"
12,3.2 nM,"C[C@@H](Oc1ccc(Cl)cn1)[C@@H]1CN(C(=O)c2ccc(C#N)cc2)C[C@H]1c1ccc(Cl)c(Cl)c1 (racemic) [Example 10, 4-[(3SR,4RS)-3-[(RS)-1-(5-Chloro-pyridin-2-yloxy)-ethyl]-4-(3,4-dichloro-phenyl)-pyrrolidine-1-carbonyl]-benzonitrile]"
13,19.4 nM,"COc1ncc(C(=O)N2C[C@@H]([C@@H](C)Oc3ccc(Cl)cn3)[C@H](c3ccc(Cl)c(Cl)c3)C2)cn1 (racemic) [Example 12, [(3SR,4RS)-3-[(RS)-1-(5-Chloro-pyridin-2-yloxy)-ethyl]-4-(3,4-dichloro-phenyl)-pyrrolidin-1-yl]-(2-methoxy-pyrimidin-5-yl)-methanone]"
14,5 nM,"Cc1cc(C(=O)N2C[C@@H]([C@@H](C)Oc3ccc(Cl)cn3)[C@H](c3ccc(Cl)c(Cl)c3)C2)c(C)n1C1CC1 (racemic) [Example 31, [(3SR,4RS)-3-[(RS)-1-(5-Chloro-pyridin-2-yloxy)-ethyl]-4-(3,4-dichloro-phenyl)-pyrrolidin-1-yl]-(1-cyclopropyl-2,5-dimethyl-1H-pyrrol-3-yl)-methanone]"
15,17.7 nM,"C#Cc1ccc(O[C@@H](C)[C@H]2CN(C(=O)c3cnnc(C)c3)C[C@@H]2c2ccc(Cl)c(Cl)c2)nc1 (racemic) [Example 110, {(3SR,4RS)-3-(3,4-Dichloro-phenyl)-4-[(SR)-1-(5-ethynyl-pyridin-2-yloxy)-ethyl]-pyrrolidin-1-yl}-(6-methyl-pyridazin-4-yl)-methanone]"
16,45.7 nM,"C[C@H](Oc1ccc(C#N)cn1)[C@H]1CN(C(=O)c2cnc(C(C)(C)C)nc2)C[C@@H]1c1ccc(Cl)c(Cl)c1 (racemic) [Example 98, 6-{(SR)-1-[(3RS,4SR)-1-(2-tert-Butyl-pyrimidine-5-carbonyl)-4-(3,4-dichloro-phenyl)-pyrrolidin-3-yl]-ethoxy}-nicotinonitrile]"
17,3.7 nM,"Cc1cc(C(=O)N2C[C@H]([C@H](C)Oc3ccc(C#N)cn3)[C@@H](c3ccc(Cl)cc3)C2)cnn1 [Example 111, 6-{(S)-1-[(3R,4S)-4-(4-Chloro-phenyl)-1-(6-methyl-pyridazine-4-carbonyl)-pyrrolidin-3-yl]-ethoxy}-nicotinonitrile]"
18,11.8 nM,"COc1ccc(C(=O)N2C[C@@H]([C@@H](C)Oc3ccc(Cl)cn3)[C@H](c3ccc(Cl)c(Cl)c3)C2)cn1 (racemic) [Example 11, [(3SR,4RS)-3-[(RS)-1-(5-Chloro-pyridin-2-yloxy)-ethyl]-4-(3,4-dichloro-phenyl)-pyrrolidin-1-yl]-(6-methoxy-pyridin-3-yl)-methanone]"
19,30.9 nM,"Cc1cc(C(=O)N2C[C@H]([C@H](C)Oc3ccc(C#N)cn3)[C@@H](c3ccc(F)c(F)c3)C2)cnn1 [Example 106, 6-{(S)-1-[(3R,4S)-4-(3,4-Difluoro-phenyl)-1-(6-methyl-pyridazine-4-carbonyl)-pyrrolidin-3-yl]-ethoxy}-nicotinonitrile]"
20,4 nM,"Cc1cc(C(=O)N2C[C@H]([C@H](C)Oc3ccc(Cl)cn3)[C@@H](c3ccc(F)cc3)C2)cnn1 [Example 115, [(3R,4S)-3-[(S)-1-(5-Chloro-pyridin-2-yloxy)-ethyl]-4-(4-fluoro-phenyl)-pyrrolidin-1-yl]-(6-methyl-pyridazin-4-yl)-methanone]"
